Laboratory results from US20260078120A1, “SUBSTITUTED PYRIDOPYRIMIDINONES” (MIRATI THERAPEUTICS, INC., priority 2022, published 2026).
pIC50: −log10 of the molar value.

Tests used:
Assay type in all cases: cell-based
[1] = test system: SKBR3 (PI3Kα wild type) cells; experiment: CellTiter-Glo 2.0 luminescent cell viability assay, 72 hours, SKBR3 cells; conditions: Homo sapiens, SK-BR-3, 72 h, SKBR3 (PI3Kα wild type) cells, CellTiter-Glo, approximately 72 hours; read-out: SKBR3 (WT) Viability IC50
Method in brief: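 Viability measured via CTG luminescence following roughly 72 hours of compound exposure at 37° C. Dosing used a 10 um starting concentration diluted 1:4 over 10 points; percent-of-vehicle data fitted with a variable-slope four-parameter model for IC50.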

[2] = test system: T47D (PI3Kα H1047R mutant) cells; experiment: CellTiter-Glo 2.0 luminescent cell viability assay, 72 hours, T47D cells; conditions: Homo sapiens, T47D, 72 h, T47D (PI3Kα H1047R mutant) cells, CellTiter-Glo, approximately 72 hours; read-out: T47D (H1047R mutant) Viability IC50
Method in brief: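 Cells seeded at 1000 per well overnight were dosed with a 10-concentration, 1:4 series starting at 10 µM and incubated ~72 h at 37° C. Viability was read by CellTiter-Glo 2.0 luminescence after 30 min at room temperature. IC50 came from four-parameter fits of percent vehicle control.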

[3] = test system: T47D (PI3Kα H1047R mutant) cells; experiment: Inhibition of pAKT formation, alphaLISA SureFire Ultra AKT 1/2/3 (pS473), T47D cells; conditions: Homo sapiens, T47D, T47D (PI3Kα H1047R mutant) cells; inhibition of pAKT (pS473) formation; approximately one hour or 24 hours treatment; read-out: T47D pAKT (H1047R mutant) IC50
Method in brief: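 T47D cells (12,000/well) in HBSS were dosed with compound at 10 concentrations (10.4 μM top, 1:4 dilutions) for about 1 h or 24 h at 37 °C, then lysed. pS473 AKT was read by alphaLISA. Signals were normalized to alpelisib and DMSO controls, and IC50 came from a four-parameter fit.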

[4] = test system: MKN1 (PI3Kα E545K mutant) cells; experiment: Inhibition of pAKT formation, alphaLISA SureFire Ultra AKT 1/2/3 (pS473), MKN1 cells; conditions: Homo sapiens, MKN-1; MKN1 (PI3Kα E545K mutant) cells; inhibition of pAKT (pS473) formation; approximately one hour or 24 hours treatment; read-out: MKN1 (E545K) pAKT IC50
Method: (§1) The ability of a compound of Formula (I) to inhibit the formation of pAKT was measured using alphaLISA Surefire Ultra AKT 1/2/3 (pS473) Assay Kit (#ALSU-PAKT-B50K) was obtained from Perkin Elmer (Waltham, MA).
(§2) To prepare assay plates for pAKT alphaLISA assays, cells were trypsinized, resuspended in fresh media, and viable cells were counted utilizing trypan blue exclusion. Prior to seeding, cells were washed with PBS and resuspended in HBSS (Gibco, #14025092). T47D (12,000/w), SKBR3(12,000/w), or MKN1(24,000/w) cells were seeded at 12 μl per well in a solid white flat bottom 384 cell culture plate (Perkin Elmer #6007680).
(§3) Immediately after seeding, cells were dosed using an Echo Liquid Handler (Beckman Coulter) with compounds at a […] starting concentration and serially diluted (1:4) for a total of 10 concentrations. […] Cells were incubated with the compounds (solubilized in DMSO) for approximately one hour or 24 hours at 37° C. After one hour (or 24 hours) of treatment, cells were lysed with 3 μl of the 5× lysis buffer (provided and incubated at room temperature for 15 min on a microtiter plate shaker). Once cells were sufficiently lysed, 7.5 μl of the acceptor bead mix (made using the manufacturers recommended dilutions) was added to each well and left on the microtiter plate shaker for 1 min prior to incubating plates at room temperature for one hour, in the absence of light. After one hour of incubation with the acceptor bead mix, 7.5 μl of the donor bead mix (made using the manufacturers recommended dilutions) was added to each well and left on the microtiter plate shaker for 1 min prior to incubating plates at room temperature overnight in the absence of light. Plates were then imaged the following day using a CLARIOstar microplate reader (BMG Labtech, Germany).
(§4) Percent of control values were calculated by subtracting the average signal from the positive control (alpelisib) treated wells from all treated wells (including DMSO control wells) and then divided by the average signal from the vehicle DMSO treated control wells. Percent of vehicle control values were plotted as log (inhibitor) vs. response-Variable slope (four parameters) for curve fitting and IC50 values were determined using XLfit.
(§5) Key: N.D. =not determined

[5] = test system: SKBR3 (PI3Kα wild type) cells; experiment: Inhibition of pAKT formation, alphaLISA SureFire Ultra AKT 1/2/3 (pS473), SKBR3 cells; conditions: Homo sapiens, SK-BR-3; Inhibition of pAKT in SKBR3 (PI3Kα wild type) cells; read-out: SKBR3 (WT) pAKT IC50 (nM) (H1047R mutant) IC50
Method: as §1, §2, §3, §4, §5

[6] = test system: MKN1 (PI3Kα E545K mutant) cells; experiment: CellTiter-Glo 2.0 luminescent cell viability assay, 72 hours, MKN1 cells; conditions: Homo sapiens, MKN-1; MKN1 (PI3Kα E545K mutant) cells, CellTiter-Glo, approximately 72 hours; read-out: MKN1 (E545K) Viability IC50
Method: This Example illustrates that exemplary compounds of the present invention decrease the viability of cells.
The ability of a compound of Formula (I) to decrease the viability of cells was measured using CellTiter-Glo 2.0 (CTG) Luminescent Cell Viability Assay (#G9241) obtained from Promega (Madison, WI).
To prepare assay plates for viability assays, cells were trypsinized, resuspended in fresh media, and viable cells were counted utilizing trypan blue exclusion. T47D, SKBR3, or MKN1 cells were seeded at 1000 cells in 30 μl per well in a solid white flat bottom 384 cell culture plate (Perkin Elmer #6007680) and incubated at 37° C. overnight.
Assay day 1, cells were dosed using an Echo Liquid Handler (Beckman Coulter) with compounds at a 10 um starting concentration and serially diluted (1:4) for a total of 10 concentrations. Cells were incubated for approximately 72 hours with the compounds (solubilized in DMSO) at 37° C. After 72 hours of treatment, cell plates were equilibrated to room temperature before adding 15 μl of CTG to each well, plates were then covered in aluminum foil to protect from light, incubated at room temperature for 30 minutes on a microtiter plate shaker, and luminescence readings were collected using a CLARIOstar microplate reader (BMG Labtech, Germany). Percent of vehicle control values were plotted as log (inhibitor) vs. response-Variable slope (four parameters) for curve fitting and IC50 values were determined using XLfit.

pIC50 [1] | pIC50 [2] | pIC50 [3] | pIC50 [4] | IC50 [5] | pIC50 [6] | SMILES
< 5.00 | 5.74 | 7.39 | < 5.00 | 6120 nM | < 5.00 | Cc1c(N2CCC(C)(C)CC2)nc2c(C(C)Nc3ccccc3C(=O)O)cccn2c1=O (stereo not drawn) [Example 5-10, 2-((1-(2-(4,4-dimethylpiperidin-1-yl)-3-methyl-4-oxo-4H-pyrido[1,2-a]pyrimidin-9-yl)ethyl)amino)benzoic acid]
< 5.00 | 5.87 | 5.34 | 5.54 | > 10000 nM | < 5.00 | CNC(=O)c1ccccc1NC(C)c1cc(C)cn2c(=O)cc(N3CCCCC3)nc12 (stereo not drawn) [Example 3-14, N-methyl-2-((1-(7-methyl-4-oxo-2-(piperidin-1-yl)-4H-pyrido[1,2-a]pyrimidin-9-yl)ethyl)amino)benzamide]
< 5.00 | 5.42 | 7.55 | 5.19 | 9050 nM | < 5.00 | CCc1c(N2CCCCC2)nc2c(C(C)Nc3ccccc3C(=O)O)cc(C)cn2c1=O (stereo not drawn) [Example 5-6, 2-((1-(3-ethyl-7-methyl-4-oxo-2-(piperidin-1-yl)-4H-pyrido[1,2-a]pyrimidin-9-yl)ethyl)amino)benzoic acid]
< 5.00 | < 5.00 | < 5.00 | < 5.00 | 583 nM | < 5.00 | Cc1cc(C(C)Oc2ccccc2C(=O)O)c2nc(N3CCCCC3)cc(=O)n2c1 (stereo not drawn) [Example 3-9, 2-(1-(7-methyl-4-oxo-2-(piperidin-1-yl)-4H-pyrido[1,2-a]pyrimidin-9-yl)ethoxy)benzoic acid]
< 5.00 | 5.90 | 7.83 | 5.60 | > 10000 nM | < 5.00 | Cc1cc([C@@H](C)Nc2ccccc2C(=O)O)c2nc(N3CCCCC3)cc(=O)n2c1 (single isomer, unassigned) [Example 3-1]
5.41 | < 5.00 | < 5.00 | < 5.00 | > 10000 nM | 5.37 | Cc1cc(C(C)N(C)C(=O)CCl)c2nc(N3CCCCC3)cc(=O)n2c1 (stereo not drawn) [Example 4-4, 2-chloro-N-methyl-N-(1-(7-methyl-4-oxo-2-(piperidin-1-yl)-4H-pyrido[1,2-a]pyrimidin-9-yl)ethyl)acetamide]
< 5.00 | 6.34 | 7.52 | 5.86 | 1820 nM | < 5.00 | Cc1cc([C@@H](C)Nc2ccccc2C(=O)O)c2nc(N3CCC(C)(C)CC3)c(C)c(=O)n2c1 (single isomer, unassigned) [Example 5-1]
< 5.00 | < 5.00 | 5.60 | < 5.00 | > 10000 nM | – | Cc1cc(C(C)Sc2ccccc2C(=O)O)c2nc(N3CCCCC3)cc(=O)n2c1 (stereo not drawn) [Example 3-10, 2-((1-(7-methyl-4-oxo-2-(piperidin-1-yl)-4H-pyrido[1,2-a]pyrimidin-9-yl)ethyl)thio)benzoic acid]
< 5.00 | 5.04 | < 5.00 | < 5.00 | > 10000 nM | – | Cc1cc([C@H](C)Nc2ccccc2C(=O)O)c2nc(N3CCC(C)(C)CC3)c(C)c(=O)n2c1 (single isomer, unassigned) [Example 5-2]
– | – | 5.64 | 5.05 | > 10000 nM | – | Cc1cc(C(C)Nc2cccc(O)c2C(=O)O)c2nc(N3CCCCC3)cc(=O)n2c1 (stereo not drawn) [Example 3-4, 2-hydroxy-6-((1-(7-methyl-4-oxo-2-(piperidin-1-yl)-4H-pyrido[1,2-a]pyrimidin-9-yl)ethyl)amino)benzoic acid]
6.10 | 5.79 | 7.15 | 5.49 | > 10000 nM | – | Cc1cc(C(C)Nc2ccccc2C(=O)O)c2nc(N3CCC4(CC3)CC4)cc(=O)n2c1 (stereo not drawn) [Example 3-22, 2-((1-(7-methyl-4-oxo-2-(6-azaspiro[2.5]octan-6-yl)-4H-pyrido[1,2-a]pyrimidin-9-yl)ethyl)amino)benzoic acid]
5.00 | 7.06 | 9.01 | – | 2260 nM | – | Cc1cc([C@@H](C)Nc2ccccc2C(=O)O)c2nc(N3CCCCC3)c(C#N)c(=O)n2c1 [Example 10-99, (R)-2-((1-(3-cyano-7-methyl-4-oxo-2-(piperidin-1-yl)-4H-pyrido[1,2-a]pyrimidin-9-yl)ethyl)amino)benzoic acid]
– | – | < 5.00 | < 5.00 | – | – | Cc1cc(C(C)N(C)c2ccccc2C(=O)O)c2nc(N3CCCCC3)cc(=O)n2c1 (stereo not drawn) [Example 3-21, 2-(methyl(1-(7-methyl-4-oxo-2-(piperidin-1-yl)-4H-pyrido[1,2-a]pyrimidin-9-yl)ethyl)amino)benzoic acid]
< 5.00 | 6.82 | 8.88 | – | 2480 nM | – | Cc1cc([C@@H](C)Nc2ccccc2C(=O)O)c2nc(N3CCC(C)(C)CC3)c(C#N)c(=O)n2c1 [Example 10-72, (R)-2-((1-(3-cyano-2-(4,4-dimethylpiperidin-1-yl)-7-methyl-4-oxo-4H-pyrido[1,2-a]pyrimidin-9-yl)ethyl)amino)benzoic acid]
< 5.00 | < 5.00 | < 4.00 | – | > 10000 nM | – | Cc1ccc(-c2cc(=O)n3cc(C)cc(C(C)Nc4ccccc4C(=O)O)c3n2)cc1 (stereo not drawn) [7-2, 2-((1-(7-methyl-4-oxo-2-(p-tolyl)-4H-pyrido[1,2-a]pyrimidin-9-yl)ethyl)amino)benzoic acid]
< 5.00 | 6.25 | 8.31 | – | 8650 nM | – | Cc1cc([C@@H](C)Nc2cccc(F)c2C(=O)O)c2nc(N3CCC(F)(F)CC3)c(C#N)c(=O)n2c1 [Example 10-62, (R)-2-((1-(3-cyano-2-(4,4-difluoropiperidin-1-yl)-7-methyl-4-oxo-4H-pyrido[1,2-a]pyrimidin-9-yl)ethyl)amino)-6-fluorobenzoic acid]
